Laboratory results: patent US10233173B2, “Substituted 1,2,3-triazoles as NR2B-selective NMDA modulators” (JANSSEN PHARMACEUTICA NV, priority 2016, dated 2019)
Each block holds one compound with its values, some of them ahead of it.

Biological target: human GluN1/GluN2B NMDA receptors (Homo sapiens, UniProt Q05586+Q13224)
Assay: Cell-based calcium flux (FLIPR) assay on cloned human NR1/NR2B ion channels expressed in mammalian cells
Conditions: standard assay
Experimental: Effects of Test Articles on Cloned Human NR1/NR2B Ion Channels Expressed in Mammalian Cells
NMDA receptors are ion channels that are highly permeable to Ca^2+ ions, rendering it possible to monitor NMDA receptor function using cell-based calcium flux assay. In this assay, co-agonists glutamate and glycine are added to cells heterologously expressing human GluN1/GluN2B NMDA receptors to initiate cellular Ca^2+ influx. The time course of the changes in intracellular calcium is measured using a fluorescent dye and a FLIPR (Fluorometric Imaging Plate Reader) device.
Twenty four hours before measurements, the expression of the NMDA receptors in the stable cell line is induced with Tet-On inducible system in the presence of a non-selective NMDA receptor blocker. On the day of the experiment, cell culture media is carefully washed and the cells are loaded with Calcium 5 Dye Kit (Molecular Devices) in dye loading buffer containing 149 mM NaCl, 4 mM KCl, 2 mM CaCl2, and 1.5 mM MgCl2, 10 mM HEPES and 5 mM D-glucose; pH 7.4. After 1 h incubation at the room temperature, the dye is washed away with the assay buffer (149 mM NaCl (standard assay) or 150 mM (HTS assay), 4 mM KCl (standard assay) or 3 mM (HTS assay), 2 mM CaCl2, 0.01 mM EDTA, 10 mM HEPES and 5 mM D-glucose; pH 7.4) In the FLIPR TETRA reader, various concentrations of the test compounds are added to the cells for 5 min while fluorescence is monitored to detect potential agonist activity. Next, co-agonists, glutamate and glycine are added for another 5 minutes. The concentration of glutamate corresponding to ˜EC80 (standard assay) or EC40 (HTS assay) is used to maximize the assay's signal window or the ability to detect NMDA receptor antagonists and negative allosteric modulators, respectively. A saturating concentration (10 μM) of glycine is also present in the assay. […] The fluorescent signal in the presence of test compounds is quantified and normalized to the signal defined by the appropriate control wells.

[1] = human GluN1/GluN2B, calcium flux (FLIPR), glutamate ~EC80
[2] = glutamate at ~EC80, FLIPR calcium flux

Sequence of human GluN1/GluN2B NMDA receptors (Q13224 27-1484, other chains not shown): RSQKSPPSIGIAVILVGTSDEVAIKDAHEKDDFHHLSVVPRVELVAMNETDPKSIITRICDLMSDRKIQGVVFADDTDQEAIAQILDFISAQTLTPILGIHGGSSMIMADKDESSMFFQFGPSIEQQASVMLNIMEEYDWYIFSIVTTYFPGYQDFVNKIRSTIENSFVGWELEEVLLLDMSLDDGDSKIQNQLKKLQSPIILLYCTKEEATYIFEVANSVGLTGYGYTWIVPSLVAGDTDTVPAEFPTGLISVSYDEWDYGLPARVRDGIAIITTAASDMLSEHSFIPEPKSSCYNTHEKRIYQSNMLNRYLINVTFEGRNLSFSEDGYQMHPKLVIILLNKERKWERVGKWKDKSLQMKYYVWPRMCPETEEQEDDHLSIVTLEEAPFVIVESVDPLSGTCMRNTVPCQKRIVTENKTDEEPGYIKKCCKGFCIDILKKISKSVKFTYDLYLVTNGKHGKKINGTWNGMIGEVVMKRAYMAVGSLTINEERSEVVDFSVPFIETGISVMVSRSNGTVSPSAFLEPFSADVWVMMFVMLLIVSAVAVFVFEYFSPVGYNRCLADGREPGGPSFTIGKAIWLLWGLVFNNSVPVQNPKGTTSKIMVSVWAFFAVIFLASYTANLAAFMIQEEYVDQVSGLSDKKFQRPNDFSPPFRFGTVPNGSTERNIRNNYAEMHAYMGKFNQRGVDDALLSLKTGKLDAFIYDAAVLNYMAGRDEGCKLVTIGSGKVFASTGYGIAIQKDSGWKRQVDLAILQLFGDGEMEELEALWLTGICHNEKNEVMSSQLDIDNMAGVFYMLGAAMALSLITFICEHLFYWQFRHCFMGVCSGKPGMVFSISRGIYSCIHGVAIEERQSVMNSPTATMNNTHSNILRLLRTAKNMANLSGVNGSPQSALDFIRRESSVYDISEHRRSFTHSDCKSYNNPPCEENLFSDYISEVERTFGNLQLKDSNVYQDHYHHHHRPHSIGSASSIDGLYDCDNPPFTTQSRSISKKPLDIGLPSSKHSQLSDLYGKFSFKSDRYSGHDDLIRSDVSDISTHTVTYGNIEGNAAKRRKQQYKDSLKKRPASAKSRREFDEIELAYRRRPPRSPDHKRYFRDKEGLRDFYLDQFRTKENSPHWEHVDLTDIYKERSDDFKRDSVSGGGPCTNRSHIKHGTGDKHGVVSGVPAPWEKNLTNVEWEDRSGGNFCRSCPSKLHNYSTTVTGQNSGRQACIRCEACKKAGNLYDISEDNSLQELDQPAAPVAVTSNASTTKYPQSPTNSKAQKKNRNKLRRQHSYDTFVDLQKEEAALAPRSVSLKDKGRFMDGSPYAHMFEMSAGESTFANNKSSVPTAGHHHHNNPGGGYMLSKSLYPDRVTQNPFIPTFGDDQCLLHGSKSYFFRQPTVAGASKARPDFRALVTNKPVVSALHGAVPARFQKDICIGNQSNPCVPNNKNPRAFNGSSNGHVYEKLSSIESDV

Structure (SMILES): Cc1cnc(OCc2cn(-c3cccc(C(C)C)c3)nn2)nc1 [Example 266, 2-[[1-(3-Isopropylphenyl)triazol-4-yl]methoxy]-5-methyl-pyrimidine]
IC50 [1]: 0.01 µM

Structure (SMILES): Cc1ccc(-n2cc(COc3ncc(Cl)cn3)nn2)cc1 [Example 259, 5-Chloro-2-[[1-(p-tolyl)triazol-4-yl]methoxy]pyrimidine]
IC50 [1]: 0.711 µM

Structure (SMILES): Cc1cnc(N[C@H](C)c2cn(-c3ccc(Cl)c(OC(F)F)c3)nn2)nc1 [Example 224, N-[(1R)-1-[1-[4-Chloro-3-(difluoromethoxy)phenyl]triazol-4-yl]ethyl]-5-methyl-pyrimidin-2-amine]
IC50 [1]: 0.121 µM

Structure (SMILES): Cc1nc(OCc2cn(-c3ccc4c(c3)OC(F)(F)O4)nn2)ncc1F [Example 357, 2-[[1-(2,2-Difluoro-1,3-benzodioxol-5-yl)triazol-4-yl]methoxy]-5-fluoro-4-methyl-pyrimidine]
IC50 [1]: 0.35 µM

Structure (SMILES): CNc1ccnc(OCc2cn(-c3ccc(Cl)c(OC(F)F)c3)nn2)n1 [Example 171, 2-[[1-[4-Chloro-3-(difluoromethoxy)phenyl]triazol-4-yl]methoxy]-N-methyl-pyrimidin-4-amine]
IC50 [1]: 0.006 µM

Structure (SMILES): CC(F)(F)c1cc(-n2cc(COc3ncc(CO)cn3)nn2)ccc1Cl [Example 533, [2-[[1-[4-Chloro-3-(1,1-difluoroethyl)phenyl]triazol-4-yl]methoxy]pyrimidin-5-yl]methanol]
IC50 [2]: 0.017 µM

Structure (SMILES): CC(F)(F)c1cccc(-n2cc(COc3ncc(CO)cn3)nn2)c1 [Example 298, [2-[[1-[3-(1,1-Difluoroethyl)phenyl]triazol-4-yl]methoxy]pyrimidin-5-yl]methanol]
IC50 [1]: 0.034 µM

Structure (SMILES): CCc1cnc(NCc2cn(-c3ccc(Cl)c(C(F)F)c3)nn2)nc1 [Example 202, N-[[1-[4-Chloro-3-(difluoromethyl)phenyl]triazol-4-yl]methyl]-5-ethyl-pyrimidin-2-amine]
IC50 [1]: 0.044 µM

Structure (SMILES): Cc1ccnc(NCc2cn(-c3ccc(Cl)c(C(F)F)c3)nn2)n1 [Example 201, N-[[1-[4-Chloro-3-(difluoromethyl)phenyl]triazol-4-yl]methyl]-4-methyl-pyrimidin-2-amine]
IC50 [1]: 0.1 µM

Structure (SMILES): Cc1cc(C)nc(OCc2cn(-c3ccc(Cl)c(C(C)(F)F)c3)nn2)n1 [Example 546, 2-[[1-[4-Chloro-3-(1,1-difluoroethyl)phenyl]triazol-4-yl]methoxy]-4,6-dimethyl-pyrimidine]
IC50 [2]: 0.024 µM

IC50 [1]: 0.106 µM
Structure (SMILES): FC(F)Oc1cc(-n2cc(CNc3ncco3)nn2)ccc1Cl [Example 97, N-[[1-[4-Chloro-3-(difluoromethoxy)phenyl]triazol-4-yl]methyl]oxazol-2-amine]

Structure (SMILES): CCc1cnc(OCc2cn(-c3ccc(F)c(Br)c3)nn2)nc1 [Example 40, 2-[[1-(3-Bromo-4-fluoro-phenyl)triazol-4-yl]methoxy]-5-ethyl-pyrimidine]
IC50 [1]: 0.001 µM

Structure (SMILES): OCc1ccnc(OCc2cn(-c3ccc(Cl)c(C(F)F)c3)nn2)n1 [Example 625, [2-[[1-[4-Chloro-3-(difluoromethyl)phenyl]triazol-4-yl]methoxy]pyrimidin-4-yl]methanol]
IC50 [2]: 0.017 µM

Structure (SMILES): Fc1cnc(OCc2cn(-c3ccc(Cl)c(OC(F)F)c3)nn2)nc1 [Example 95, 2-[[1-[4-Chloro-3-(difluoromethoxy)phenyl]triazol-4-yl]methoxy]-5-fluoro-pyrimidine]
IC50 [1]: 0.023 µM

Structure (SMILES): CC(C)(O)c1cnc(OCc2cn(-c3ccc(Cl)c(OC(F)F)c3)nn2)nc1 [Example 385, 2-[2-[[1-[4-Chloro-3-(difluoromethoxy)phenyl]triazol-4-yl]methoxy]pyrimidin-5-yl]propan-2-ol]
IC50 [1]: 0.028 µM

Structure (SMILES): Cc1cnc(OCc2cn(-c3ccc(F)c(C(F)(F)F)c3)nn2)nc1 [Example 81, 2-[[1-[4-Fluoro-3-(trifluoromethyl)phenyl]triazol-4-yl]methoxy]-5-methyl-pyrimidine]
IC50 [1]: 0.003 µM

Structure (SMILES): CC(C)(O)c1cnc(OCc2cn(-c3cccc(OC(F)(F)F)c3)nn2)nc1 [Example 345, 2-[2-[[1-[3-(Trifluoromethoxy)phenyl]triazol-4-yl]methoxy]pyrimidin-5-yl]propan-2-ol]
IC50 [1]: 0.284 µM

Structure (SMILES): Cc1cnc(OCc2cn(-c3cc(C)c(F)cc3F)nn2)nc1 [Example 654, 2-[[1-(2,4-Difluoro-5-methyl-phenyl)triazol-4-yl]methoxy]-5-methyl-pyrimidine]
IC50 [2]: 0.979 µM

Structure (SMILES): Fc1ccc(-n2cc(COc3ncc(F)c(NCC(F)F)n3)nn2)cc1OC(F)F [Example 517, N-(2,2-Difluoroethyl)-2-[[1-[3-(difluoromethoxy)-4-fluoro-phenyl]triazol-4-yl]methoxy]-5-fluoro-pyrimidin-4-amine]
IC50 [2]: 0.912 µM

IC50 [1]: 0.655 µM
Structure (SMILES): Cc1cnc(OCc2cn(-c3ccnc(C)c3)nn2)nc1 [Example 175, 5-Methyl-2-[[1-(2-methyl-4-pyridyl)triazol-4-yl]methoxy]pyrimidine]

IC50 [1]: > 10 µM
Structure (SMILES): Cn1nccc1NCc1cn(-c2ccc(F)c(C(F)F)c2)nn1 [Example 219, N-((1-(3-(Difluoromethyl)-4-fluorophenyl)-1H-1,2,3-triazol-4-yl)methyl)-1-methyl-1H-pyrazol-5-amine]

Structure (SMILES): Fc1ccc(-n2cc(COc3ccccn3)nn2)cc1C(F)(F)F [Example 158, 2-[[1-[4-Fluoro-3-(trifluoromethyl)phenyl]triazol-4-yl]methoxy]pyridine]
IC50 [1]: 3.04 µM

Structure (SMILES): Cc1ccnc(OCc2cn(-c3ccc(F)c(C(C)(F)F)c3)nn2)n1 [Example 79, 2-[[1-[3-(1,1-Difluoroethyl)-4-fluoro-phenyl]triazol-4-yl]methoxy]-4-methyl-pyrimidine]
IC50 [1]: 0.007 µM

IC50 [1]: 0.04 µM
Structure (SMILES): Cc1ccnc(OC(C)c2cn(-c3ccc(Cl)c(OC(F)F)c3)nn2)n1 (racemic) [Example 59, (R/S)-2-[1-[1-[4-Chloro-3-(difluoromethoxy)phenyl]triazol-4-yl]ethoxy]-4-methyl-pyrimidine]

Structure (SMILES): FC(F)Oc1cnc(OCc2cn(-c3ccc(Cl)cc3)nn2)nc1 [Example 227, 2-[[1-(4-Chlorophenyl)triazol-4-yl]methoxy]-5-(difluoromethoxy)pyrimidine]
IC50 [1]: 0.151 µM

Structure (SMILES): FC(F)c1cc(-n2cc(CNc3ncccn3)nn2)ccc1Cl [Example 109, N-[[1-[4-Chloro-3-(difluoromethyl)phenyl]triazol-4-yl]methyl]pyrimidin-2-amine]
IC50 [1]: 1.26 µM

Structure (SMILES): COCc1cnc(OCc2cn(-c3ccc(F)c(C(C)(F)F)c3)nn2)nc1 [Example 569, 2-[[1-[3-(1,1-Difluoroethyl)-4-fluoro-phenyl]triazol-4-yl]methoxy]-5-(methoxymethyl)pyrimidine]
IC50 [2]: 0.089 µM

Structure (SMILES): COc1ccnc(OCc2cn(-c3ccc(F)c(C(F)(F)F)c3)nn2)n1 [Example 442, 2-[[1-[4-Fluoro-3-(trifluoromethyl)phenyl]triazol-4-yl]methoxy]-4-methoxy-pyrimidine]
IC50 [2]: 0.072 µM

Structure (SMILES): Fc1ccc(-n2cc(COc3ncc(C4CC4)cn3)nn2)cc1C(F)F [Example 423, 5-Cyclopropyl-2-[[1-[3-(difluoromethyl)-4-fluoro-phenyl]triazol-4-yl]methoxy]pyrimidine]
IC50 [2]: 0.005 µM

Structure (SMILES): Cc1cnc(OCc2cn(-c3cc(C)cc(C)c3)nn2)nc1 [Example 364, 2-[[1-(3,5-Dimethylphenyl)triazol-4-yl]methoxy]-5-methyl-pyrimidine]
IC50 [1]: 0.027 µM

Structure (SMILES): CC(F)(F)c1cc(-n2cc(COc3nccc(C(F)(F)F)n3)nn2)ccc1F [Example 564, 2-[[1-[3-(1,1-Difluoroethyl)-4-fluoro-phenyl]triazol-4-yl]methoxy]-4-(trifluoromethyl)pyrimidine]
IC50 [2]: 0.272 µM

Structure (SMILES): COCc1ccnc(OCc2cn(-c3ccc(F)c(C(C)(F)F)c3)nn2)n1 [Example 570, 2-[[1-[3-(1,1-Difluoroethyl)-4-fluoro-phenyl]triazol-4-yl]methoxy]-4-(methoxymethyl)pyrimidine]
IC50 [2]: 0.011 µM

Structure (SMILES): Cc1cc(F)ccc1-n1cc(COc2ncc(F)cn2)nn1 [Example 487, 5-Fluoro-2-[[1-(4-fluoro-2-methyl-phenyl)triazol-4-yl]methoxy]pyrimidine]
IC50 [2]: 16.2 µM

Structure (SMILES): FC(F)c1cnc(OCc2cn(-c3cccc(C(F)(F)F)c3)nn2)nc1 [Example 289, 5-(Difluoromethyl)-2-[[1-[3-(trifluoromethyl)phenyl]triazol-4-yl]methoxy]pyrimidine]
IC50 [1]: 0.037 µM

Structure (SMILES): Cn1ccc(NCc2cn(-c3ccc(F)c(OC(F)F)c3)nn2)n1 [Example 101, N-[[1-[3-(Difluoromethoxy)-4-fluoro-phenyl]triazol-4-yl]methyl]-1-methyl-pyrazol-3-amine]
IC50 [1]: 0.374 µM

Structure (SMILES): FC(F)c1cnc(OCc2cn(-c3cccc(C(F)F)c3)nn2)nc1 [Example 273, 5-(Difluoromethyl)-2-[[1-[3-(difluoromethyl)phenyl]triazol-4-yl]methoxy]pyrimidine]
IC50 [1]: 0.027 µM

Structure (SMILES): Cc1cnc(OCc2cn(-c3ccc(OC(F)(F)F)cc3)nn2)nc1 [Example 339, 5-Methyl-2-[[1-[4-(trifluoromethoxy)phenyl]triazol-4-yl]methoxy]pyrimidine]
IC50 [1]: 1.13 µM
